According to paper PMC6691816, “Discovery of aminopyridine-containing spiro derivatives as EGFR mutations inhibitors” (Journal of Enzyme Inhibition and Medicinal Chemistry, 2019):

What was measured:
Assay type in all cases: biochemical
[1] = target: T1, EGF-R wt (Homo sapiens, UniProt P00533); assay: EGFR-wt protein kinase assay (33PanQinase), single concentration; settings: 0.5 μM (5 × 10^−7 M), singlicate, % of control activity; read-out: Residual activity under 0.5 μM drug concentration (%) EGF-R wt
T1 construct: purchased ProQinase GmbH
Method: (§1) The inhibitory profile of 16 compounds was determined using two protein kinases. The compounds were tested at a concentration of 5 × 1 0^−7 M, in singlicate. The compounds were solved and diluted to 5 × 10^−5 M stock solutions in 100% DMSO according to the customer-filled CSF. 10 μL of each of the stock solutions were transferred into […] of a 96-well, Column 1 and 2 of the plate were filled with 10 μL100% DMSO. The plate is in the following referred to as “copy plate”. In the process, 90 μL H2O were added to each well of the copy plate. To minimize potential compound precipitation, the H2O was added to each well only a few minutes before the transfer of the compound solutions into the assay plates. The plate was shaken thoroughly, resulting in a “compound dilution plate” with a compound concentration of 5 × 10^−6 M/10% DMSO. This plate was used for the transfer of 5 μL compound solution into the assay plates. The final volume of the assay was 50 μL. All compounds were tested at 5 × 1 0^−7 M in singlicate. The final DMSO concentration in the reaction cocktails was 1% in all cases. The compound dilution plate was disposed.
(§2) A radiometric protein kinase assay (33PanQinase® Activity Assay) was used for measuring the kinase activity of the two protein kinases. All kinase assays were performed in 96-well FlashPlatesTM from PerkinElmer (Boston, MA, USA) in a 50 μL reaction volume. The reaction cocktail was pipetted in 4 steps in the following order: 20 μL of assay buffer, 5 μL of ATP solution (in H2O), 5 μL of test compound (in 10% DMSO), 20 μL enzyme/subtrate mix. The assay for both protein kinases contained 70 mM HEPES-NaOH pH 7.5, 3 mM MgCl2, 3 mM MnCl2, 3 μM Na-orthovanadate, 1.2 mM DTT, ATP. The assay for ERBB2 additionally contained 50 μg/mLPEG20000. The reaction cocktails were incubated at 30 °C for 60 min. The reaction was stopped with 50 μL of 2% (v/v) H3PO4, plates were aspirated and washed two times with 200 μL 0.9% (w/v) NaCl. Incorporation of 33Pi was determined with a microplate scintillation counter (Microbeta, Wallac). All assays were performed with a BeckmanCoulter/SAGIAN™Core System. The median value of the counts in column 1 (n = 8) of each assay plate was defined as “low control”. This value reflects unspecific binding of radioactivity to the plate in the absence of a protein kinase but in the presence of the substrate. The median value of the counts in column 2 of each assay plate (n = 8) was taken as the “high control”. As part of the data evaluation the low control value from a particular plate was subtracted from the high control value as well as from all 80 “compound values” of the corresponding plate. The residual activity (in %) for each well of a particular plate was calculated by using the following formula: Res. Activity (%) = 100 × [(cpm of compound – low control)/(high control − low control)]

[2] = target: EGF-R T790M/L858R (Homo sapiens, UniProt P00533, L858R/T790M); assay: Radiometric protein kinase IC50 assay (33PanQinase); settings: for inhibitory activity on EGFR mutant containing both T790M and L858R, times stronger than neratinib: ratio of IC50 values to neratinib
Method: (§3) The compounds were serially diluted in semi-log steps with 100% DMSO in a 96 well microtiter plate. The concentration range of this serial dilution was 1 × 10^−3 M to 3 × 10^−8 M. Directly before use the test compounds were further diluted 1:10 with water, resulting in a concentration range from 1 × 10^−4 M to 3 × 1 0^−9 M in 10% DMSO. For the assays, 5 μL from each concentration were transferred into the assay. The final volume of the assay was 50 μL. The compounds were tested at 10 final assay concentrations in the range from 1 × 10^−5 M to 3 × 10^−10 M. The final DMSO concentration in the reaction cocktails was 1% in all cases.
(§4) A radiometric protein kinase assay (33PanQinase® Activity Assay) was used for measuring the kinase activity of the 9 protein kinases. All kinase assays were performed in 96-well FlashPlatesTM from Perkin Elmer (Boston, MA, USA) in a 50 μL reaction volume. The reaction cocktail was pipetted in 4 steps in the following order: 10 μL of non-radioactive ATP solution (in H2O), 25 μL of assay buffer/[γ-33P]-ATP mixture, 5 μL of test sample in 10% DMSO, 10 μL of enzyme/substrate mixture. The assay for all protein kinases contained 70 mM HEPES-NaOH pH 7.5, 3 mM MgCl2, 3 mM MnCl2, 3 μM Na-orthovanadate, 1.2 mM DTT, ATP, [γ-33P]-ATP, protein kinase, and substrate.The reaction cocktails were incubated at 30 °C for 60 min. The reaction was stopped with 50 μL of 2% (v/v) H3PO4, plates were aspirated and washed two times with 200 μL 0.9% (w/v) NaCl. Incorporation of 33Pi (counting of “cpm”) was determined with a microplate scintillation counter (Microbeta, Wallac). All assays were performed with a BeckmanCoulter Biomek 2000/SL robotic system.
(§5) For each kinase, the median value of the cpm of three wells with complete reaction cocktails, but without kinase, was defined as “low control” (n = 3). This value reflects unspecific binding of radioactivity to the plate in the absence of protein kinase but in the presence of the substrate. Additionally, for each kinase the median value of the cpm of three other wells with the complete reaction cocktail, but without any compound, was taken as the “high control”, i.e. full activity in the absence of any inhibitor (n = 3). The difference between high and low control was taken as 100% activity for each kinase. As part of the data evaluation the low control value of each kinase was subtracted from the high control value as well as from their corresponding “compound values”. The residual activity (in %) for each compound well was calculated by using the following formula: Res. Activity (%) = 100 × [(cpm of compound – low control)/(high control – low control)]
(§6) Based on each 10 corresponding residual activities, IC50 values were calculated using Prism 5.04 for Windows. The mathematical model used was “Sigmoidal response (variable slope)” with parameters “top” fixed at 100% and “bottom” at 0%. The fitting method used was a least-squares fit.

[3] = target: EGF-R T790M (Homo sapiens, UniProt P00533, T790M); assay: as above
Method: as §3, §4, §5, §6

[4] = target: T2, HER2 (Homo sapiens, UniProt P04626); assay: as above
T2 construct: purchased ProQinase GmbH
Method: as §3, §4, §5, §6

[5] = target: EGF-R L858R (Homo sapiens, UniProt P00533, L858R); assay: as above
Method: as §3, §4, §5, §6

[6] = target: EGF-R d747-749/A750P (Homo sapiens, UniProt P00533, A750P/DEL747-749); assay: as above
Method: as §3, §4, §5, §6

[7] = target: EGF-R G719S (Homo sapiens, UniProt P00533, G719S); assay: as above
Method: as §3, §4, §5, §6

[8] = target: T1, EGF-R wt; assay: as above; settings: for biochemical activity on EGFR wt compared with neratinib: not more than that of neratinib
Method: as §3, §4, §5, §6

[9] = target: EGF-R L861Q (Homo sapiens, UniProt P00533, L861Q); assay: as above
Method: as §3, §4, §5, §6

[10] = target: EGF-R d752-759 (Homo sapiens, UniProt P00533, DEL752-759); assay: as above
Method: as §3, §4, §5, §6

[11] = target: T2, HER2; assay: HER2 protein kinase assay (33PanQinase), single concentration; settings: 0.5 μM (5 × 10^−7 M), singlicate, % of control activity; read-out: Residual activity under 0.5 μM drug concentration (%) HER2
Method: as §1, §2

Sequence of EGF-R T790M/L858R (P00533 25-1210 T790M/L858R): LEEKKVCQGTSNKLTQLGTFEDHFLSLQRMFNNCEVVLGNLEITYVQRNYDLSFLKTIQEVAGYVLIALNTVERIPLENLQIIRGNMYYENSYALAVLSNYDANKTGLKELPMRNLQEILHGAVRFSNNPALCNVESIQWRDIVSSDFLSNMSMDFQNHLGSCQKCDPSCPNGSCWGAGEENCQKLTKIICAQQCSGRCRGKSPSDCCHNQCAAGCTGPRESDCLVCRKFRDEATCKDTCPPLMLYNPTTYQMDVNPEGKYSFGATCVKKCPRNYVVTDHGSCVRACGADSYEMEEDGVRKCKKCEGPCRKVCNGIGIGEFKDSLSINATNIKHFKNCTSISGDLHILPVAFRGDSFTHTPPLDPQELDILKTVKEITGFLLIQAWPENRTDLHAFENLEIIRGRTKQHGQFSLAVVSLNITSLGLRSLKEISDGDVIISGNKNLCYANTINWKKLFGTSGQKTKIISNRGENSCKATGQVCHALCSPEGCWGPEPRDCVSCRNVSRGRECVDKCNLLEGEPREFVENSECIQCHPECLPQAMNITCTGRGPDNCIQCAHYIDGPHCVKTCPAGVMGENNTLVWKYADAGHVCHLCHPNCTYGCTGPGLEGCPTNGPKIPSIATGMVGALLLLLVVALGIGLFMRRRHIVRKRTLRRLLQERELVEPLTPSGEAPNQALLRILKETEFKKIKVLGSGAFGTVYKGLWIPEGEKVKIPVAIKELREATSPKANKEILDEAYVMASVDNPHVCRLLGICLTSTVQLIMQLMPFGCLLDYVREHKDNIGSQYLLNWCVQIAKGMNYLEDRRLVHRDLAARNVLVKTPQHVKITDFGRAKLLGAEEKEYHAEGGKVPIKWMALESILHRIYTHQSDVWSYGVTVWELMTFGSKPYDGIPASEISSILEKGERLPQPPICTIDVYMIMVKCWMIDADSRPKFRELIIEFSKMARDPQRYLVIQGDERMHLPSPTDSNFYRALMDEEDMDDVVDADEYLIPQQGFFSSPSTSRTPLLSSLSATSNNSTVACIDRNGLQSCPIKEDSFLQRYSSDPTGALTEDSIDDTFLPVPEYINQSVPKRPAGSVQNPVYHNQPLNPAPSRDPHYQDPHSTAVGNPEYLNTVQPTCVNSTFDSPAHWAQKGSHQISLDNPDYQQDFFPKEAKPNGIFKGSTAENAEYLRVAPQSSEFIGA
T2 sequence (P04626 23-1255): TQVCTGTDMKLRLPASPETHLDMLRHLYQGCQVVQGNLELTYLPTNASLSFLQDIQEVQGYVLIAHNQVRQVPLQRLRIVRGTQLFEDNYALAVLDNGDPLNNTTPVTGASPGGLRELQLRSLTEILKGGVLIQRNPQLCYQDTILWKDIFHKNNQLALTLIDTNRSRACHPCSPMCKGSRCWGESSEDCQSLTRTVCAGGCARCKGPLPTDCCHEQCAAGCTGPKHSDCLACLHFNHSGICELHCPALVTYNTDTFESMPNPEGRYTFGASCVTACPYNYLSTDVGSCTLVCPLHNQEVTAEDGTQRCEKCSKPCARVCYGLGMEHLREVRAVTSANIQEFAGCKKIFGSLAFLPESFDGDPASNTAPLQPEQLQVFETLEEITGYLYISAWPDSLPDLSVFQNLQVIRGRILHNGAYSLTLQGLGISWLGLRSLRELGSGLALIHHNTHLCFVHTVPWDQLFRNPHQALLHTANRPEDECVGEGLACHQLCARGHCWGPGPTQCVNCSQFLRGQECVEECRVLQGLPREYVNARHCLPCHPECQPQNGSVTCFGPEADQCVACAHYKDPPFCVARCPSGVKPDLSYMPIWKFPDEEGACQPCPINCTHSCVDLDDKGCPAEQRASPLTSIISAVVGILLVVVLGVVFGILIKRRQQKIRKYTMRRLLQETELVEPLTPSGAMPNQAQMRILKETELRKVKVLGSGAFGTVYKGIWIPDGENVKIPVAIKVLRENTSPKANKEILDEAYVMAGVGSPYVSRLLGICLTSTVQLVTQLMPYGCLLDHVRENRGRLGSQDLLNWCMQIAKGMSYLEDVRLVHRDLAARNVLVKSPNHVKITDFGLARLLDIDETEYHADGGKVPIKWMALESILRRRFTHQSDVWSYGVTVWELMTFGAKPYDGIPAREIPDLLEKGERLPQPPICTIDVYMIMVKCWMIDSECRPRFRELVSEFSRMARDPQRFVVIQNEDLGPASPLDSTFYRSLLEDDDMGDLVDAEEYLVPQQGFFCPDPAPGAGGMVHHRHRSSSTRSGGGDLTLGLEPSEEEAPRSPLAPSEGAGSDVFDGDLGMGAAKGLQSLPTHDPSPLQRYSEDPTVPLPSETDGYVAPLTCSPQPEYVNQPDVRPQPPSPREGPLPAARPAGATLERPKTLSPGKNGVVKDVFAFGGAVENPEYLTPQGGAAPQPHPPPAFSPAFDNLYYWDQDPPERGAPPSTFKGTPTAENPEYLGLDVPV
T1 sequence (P00533 25-1210): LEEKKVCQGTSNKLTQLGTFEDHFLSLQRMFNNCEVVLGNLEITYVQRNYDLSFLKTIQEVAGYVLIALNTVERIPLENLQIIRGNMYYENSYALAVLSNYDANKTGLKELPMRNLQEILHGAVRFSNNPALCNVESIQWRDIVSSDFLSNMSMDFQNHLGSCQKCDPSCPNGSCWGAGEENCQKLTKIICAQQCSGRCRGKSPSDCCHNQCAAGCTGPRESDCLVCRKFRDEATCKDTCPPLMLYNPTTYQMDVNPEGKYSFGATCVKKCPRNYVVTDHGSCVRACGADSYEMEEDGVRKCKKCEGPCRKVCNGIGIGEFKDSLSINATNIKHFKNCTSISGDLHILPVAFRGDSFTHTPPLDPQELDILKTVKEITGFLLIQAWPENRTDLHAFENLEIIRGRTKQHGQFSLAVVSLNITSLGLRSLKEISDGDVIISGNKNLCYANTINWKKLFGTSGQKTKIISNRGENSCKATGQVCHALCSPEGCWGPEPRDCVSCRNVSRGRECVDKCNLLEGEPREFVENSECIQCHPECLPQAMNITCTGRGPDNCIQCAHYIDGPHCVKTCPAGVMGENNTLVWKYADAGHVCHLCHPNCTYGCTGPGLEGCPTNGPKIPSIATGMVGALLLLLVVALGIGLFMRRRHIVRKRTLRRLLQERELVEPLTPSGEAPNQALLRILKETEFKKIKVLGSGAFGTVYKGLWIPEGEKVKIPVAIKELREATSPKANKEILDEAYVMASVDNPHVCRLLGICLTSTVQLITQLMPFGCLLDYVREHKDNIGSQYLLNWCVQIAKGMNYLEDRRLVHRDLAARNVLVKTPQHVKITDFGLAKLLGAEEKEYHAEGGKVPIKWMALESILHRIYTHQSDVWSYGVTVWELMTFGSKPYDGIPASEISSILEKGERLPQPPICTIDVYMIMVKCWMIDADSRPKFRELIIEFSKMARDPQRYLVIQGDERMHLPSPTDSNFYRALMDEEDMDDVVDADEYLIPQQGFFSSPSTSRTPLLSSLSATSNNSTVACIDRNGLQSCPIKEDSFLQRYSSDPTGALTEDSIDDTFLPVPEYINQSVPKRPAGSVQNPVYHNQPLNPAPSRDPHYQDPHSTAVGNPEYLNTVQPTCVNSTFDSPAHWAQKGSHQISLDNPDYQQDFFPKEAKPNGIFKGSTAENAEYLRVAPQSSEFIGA
Sequence of EGF-R G719S (P00533 25-1210 G719S): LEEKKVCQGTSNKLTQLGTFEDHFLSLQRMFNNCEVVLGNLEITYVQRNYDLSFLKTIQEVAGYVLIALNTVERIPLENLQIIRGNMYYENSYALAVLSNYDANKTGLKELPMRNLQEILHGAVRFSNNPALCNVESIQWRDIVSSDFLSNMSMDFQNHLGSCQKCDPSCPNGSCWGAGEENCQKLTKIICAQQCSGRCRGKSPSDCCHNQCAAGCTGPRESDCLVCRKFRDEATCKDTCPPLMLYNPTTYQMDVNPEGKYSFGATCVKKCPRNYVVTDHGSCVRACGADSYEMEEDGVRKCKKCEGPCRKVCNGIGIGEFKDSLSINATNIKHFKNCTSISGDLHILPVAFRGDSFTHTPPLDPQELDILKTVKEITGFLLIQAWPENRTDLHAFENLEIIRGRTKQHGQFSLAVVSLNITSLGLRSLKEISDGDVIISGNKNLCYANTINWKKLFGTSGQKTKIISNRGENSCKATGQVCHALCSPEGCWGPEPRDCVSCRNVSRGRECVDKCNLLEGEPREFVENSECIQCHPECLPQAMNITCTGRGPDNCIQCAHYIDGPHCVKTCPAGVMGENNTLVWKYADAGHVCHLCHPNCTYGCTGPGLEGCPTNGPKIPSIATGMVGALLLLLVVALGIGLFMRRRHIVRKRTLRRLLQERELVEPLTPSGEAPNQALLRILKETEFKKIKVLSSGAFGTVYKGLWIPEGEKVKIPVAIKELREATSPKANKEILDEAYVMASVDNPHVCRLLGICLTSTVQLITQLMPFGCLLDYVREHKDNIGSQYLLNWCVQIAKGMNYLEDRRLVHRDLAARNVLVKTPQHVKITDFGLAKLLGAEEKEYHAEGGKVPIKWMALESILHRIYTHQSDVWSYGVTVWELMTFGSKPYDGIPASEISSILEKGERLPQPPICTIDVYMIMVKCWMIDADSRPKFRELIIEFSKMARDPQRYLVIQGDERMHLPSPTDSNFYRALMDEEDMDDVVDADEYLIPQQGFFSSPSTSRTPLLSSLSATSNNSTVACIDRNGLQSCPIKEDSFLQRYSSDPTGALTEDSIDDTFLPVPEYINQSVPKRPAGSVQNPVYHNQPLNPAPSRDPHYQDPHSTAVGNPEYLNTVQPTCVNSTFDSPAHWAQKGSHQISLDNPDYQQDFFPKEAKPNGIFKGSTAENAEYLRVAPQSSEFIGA

Structure (SMILES)	remaining activity at 0.5 µM [1] [%]	IC50 [2] [nM]	inhibitory activity on EGFR mutant containing both T790M and L858R, times stronger than neratinib [2] [times]	IC50 [3] [nM]	IC50 [4] [nM]	IC50 [5] [nM]	IC50 [6] [nM]	IC50 [7] [nM]	IC50 [8] [nM]	biochemical activity on EGFR wt compared with neratinib [8]	IC50 [9] [nM]	IC50 [10] [nM]	remaining activity at 0.5 µM [11] [%]
C=CC(=O)N1CC2(CCN(C)CC2)c2cc(OC)c(Nc3ncc(C#N)c(Nc4ccc(OCc5ccccn5)cc4)n3)cc21 [Compound A1, 2-{[5-methoxy-1′-methyl-1-(prop-2-enoyl)-1,2-dihydrospiro[indole-3,4′ -piperidine]-6-yl]amino}-4-{[4-(pyridin-2-ylmethoxy)phenyl]amino}pyrimidine-5-carbonitrile]	7	90	31	89	260	86	53	200	61	within five times	76	210	9
C=CC(=O)N1CC2(CCN(C)CC2)c2cc(OC)c(Nc3ncc(C#N)c(Nc4ccc(OCc5ccccn5)c(Cl)c4)n3)cc21 [Compound A2, 4-{[3-chloro-4-(pyridin-2-ylmethoxy)phenyl]amino}-2-{[5-methoxy-1′-methyl-1-(prop-2-enoyl)-1,2-dihydrospiro[indole-3,4′-piperidine]-6-yl]amino}pyrimidine-5-carbonitrile]	6	80	31	130	310	81	54	240	59	within five times	81	200	5
